PubChem BioAssay AID1259411 (Chemical Carcinogenesis Research Information System (CCRIS), 2018)
Activity calls are given as the source filed them. No rule for the calls is given here.

Test system: rodent carcinogenicity bioassays, tumor incidence
Assay: CCRIS carcinogenicity studies
Summary of the method: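 NCI-built, expert-reviewed records of carcinogenicity and related test outcomes (mutagenicity, tumor promotion/inhibition) compiled from published and report sources, historical span 1985-2011, not updated.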

O=CCCCC=O
carcinogen call (Species: MOUSE, Strain/Sex: B6C3F1/FEMALE, Route: INHALATION, Dose: 0, 62.5, 125, 250 PPM 6 HR/D 5 D/WK FOR 104 WK (STUDY DURATION: 104 WK), Dose: 0, 62.5, 125, 250 PPM 6 HR/D 5 D/WK FOR 104 WK (STUDY DURATION: 104 WK)): inactive; negative | carcinogen call (Species: MOUSE, Strain/Sex: B6C3F1/FEMALE, Route: INHALATION, Dose: 0, 100 PPB 6 HR/D 5 D/WK FOR 52 OR 78 WK (STUDY DURATION: 78 WK)): inactive; negative | carcinogen call (Species: MOUSE, Strain/Sex: B6C3F1/MALE, Route: INHALATION, Dose: 0, 62.5, 125, 250 PPM 6 HR/D 5 D/WK FOR 104 WK (STUDY DURATION: 104 WK), Dose: 0, 62.5, 125, 250 PPM 6 HR/D 5 D/WK FOR 104 WK (STUDY DURATION: 104 WK)): inactive; negative | carcinogen call (Species: MOUSE, Strain/Sex: B6C3F1/MALE, Route: INHALATION, Dose: 0, 100 PPB 6 HR/D 5 D/WK FOR 52 OR 78 WK (STUDY DURATION: 78 WK)): inactive; negative | carcinogen call (Species: RAT, Strain/Sex: F344/FEMALE, Route: ORAL, Dose: 0, 50, 250, 1000 PPM IN DRINKING WATER FOR 104 WK (STUDY DURATION: 104 WK), Dose: 0, 50, 250, 1000 PPM IN DRINKING WATER FOR 104 WK (STUDY DURATION: 104 WK)): inactive; negative | carcinogen call (Species: RAT, Strain/Sex: F344/MALE, Route: ORAL, Dose: 0, 50, 250, 1000 PPM IN DRINKING WATER FOR 104 WK (STUDY DURATION: 104 WK), Dose: 0, 50, 250, 1000 PPM IN DRINKING WATER FOR 104 WK (STUDY DURATION: 104 WK)): inactive; negative | carcinogen call (Species: RAT, Strain/Sex: F344/N/FEMALE, Route: INHALATION, Dose: 0, 250, 500, 750 PPM 6 HR/D 5 D/WK FOR 104 WK (STUDY DURATION: 104 WK), Dose: 0, 250, 500, 750 PPM 6 HR/D 5 D/WK FOR 104 WK (STUDY DURATION: 104 WK)): inactive; negative | carcinogen call (Species: RAT, Strain/Sex: F344/N/MALE, Route: INHALATION, Dose: 0, 250, 500, 750 PPM 6 HR/D 5 D/WK FOR 104 WK (STUDY DURATION: 104 WK), Dose: 0, 250, 500, 750 PPM 6 HR/D 5 D/WK FOR 104 WK (STUDY DURATION: 104 WK)): inactive; negative | carcinogen call (Species: Rat, Strain/Sex: Fischer 344/Female (80/Group), Route: Oral, Dose: 0, 50, 250, 1000 ppm (0; 5.5; 25.1; 85.9 mg/kg/d) in drinking water for 104 wk, study duration 104 wk, Dose: 0, 50, 250, 1000 ppm (0; 5.5; 25.1; 85.9 mg/kg/d) in drinking water for 104 wk, study duration 104 wk, Tumor Site: Type of Lesion: Large granular lymphocyte leukemia (24, 41, 41, 53/100 animals)): active; positive | carcinogen call (Species: Rat, Strain/Sex: Fischer 344/Male (80/Group), Route: Oral, Dose: 0, 50, 250, 1000 ppm (0; 3.6; 17.1; 63.9 mg/kg/d) in drinking water for 104 wk, study duration 104 wk, Dose: 0, 50, 250, 1000 ppm (0; 3.6; 17.1; 63.9 mg/kg/d) in drinking water for 104 wk, study duration 104 wk): inactive; negative

COC(=O)c1ccc(CNS(C)(=O)=O)cc1S(=O)(=O)NC(=O)Nc1nc(OC)cc(OC)n1
carcinogen call (Species: Mouse, Strain/Sex: CD-1/Female (60/Group), Route: Oral, Dose: 0, 13.9, 129.8, 1356 mg/kg/day of 94.6-95.3% mesosulfuron-methyl in diet for 18 mo, study duration 18 mo, Dose: 0, 13.9, 129.8, 1356 mg/kg/day of 94.6-95.3% mesosulfuron-methyl in diet for 18 mo, study duration 18 mo): inactive; negative | carcinogen call (Species: Mouse, Strain/Sex: CD-1/Male (60/Group), Route: Oral, Dose: 0, 10.6, 102.8, 1069 mg/kg/day of 94.6-95.3% mesosulfuron-methyl in diet for 18 mo, study duration 18 mo, Dose: 0, 10.6, 102.8, 1069 mg/kg/day of 94.6-95.3% mesosulfuron-methyl in diet for 18 mo, study duration 18 mo): inactive; negative | carcinogen call (Species: Rat, Strain/Sex: Hoe:WISK(SPF71)/Female (50/Group), Route: Oral, Dose: 0, 9.39, 94.7, 952.3 mg/kg/day of 94.6% mesosulfuron-methyl in diet for 24 mo, study duration 24 mo, Dose: 0, 9.39, 94.7, 952.3 mg/kg/day of 94.6% mesosulfuron-methyl in diet for 24 mo, study duration 24 mo): inactive; negative | carcinogen call (Species: Rat, Strain/Sex: Hoe:WISK(SPF71)/Male (50/Group), Route: Oral, Dose: 0, 7.46, 73.8, 764.0 mg/kg/day of 94.6% mesosulfuron-methyl in diet for 24 mo, study duration 24 mo, Dose: 0, 7.46, 73.8, 764.0 mg/kg/day of 94.6% mesosulfuron-methyl in diet for 24 mo, study duration 24 mo): inactive; negative

C#C[C@]1(O)CC[C@H]2[C@@H]3CCc4cc(O)ccc4[C@H]3CC[C@@]21C
carcinogen call (Species: MOUSE, Route: ORAL, Tumor Site: Type of Lesion: CERVIX, MAMMARY GLAND, PITUITARY GLAND, UTERUS, Tumor Site: Type of Lesion: CERVIX, MAMMARY GLAND, PITUITARY GLAND, UTERUS): active; positive | carcinogen call (Species: MOUSE, Strain/Sex: CD-1/FEMALE, Route: SUBCUTANEOUS, Dose: 0, 2 UG/D IN CORN OIL ON DAYS 1-5 OF LIFE (STUDY DURATION: 12-18 WK), Tumor Site: Type of Lesion: UTERUS: ADENOCARCINOMA): active; positive | carcinogen call (Species: RAT, Route: ORAL, SUBCUTANEOUS, Tumor Site: Type of Lesion: LIVER): active; positive | carcinogen call (Species: Rat, Strain/Sex: Sprague-Dawley/Female (50/Group), Route: Oral, Dose: 0, 2, 10, 50 ppb in diet, continuous exposure from conception through 2 yr, Dose: 0, 2, 10): inactive; negative | carcinogen call (Species: Rat, Strain/Sex: Sprague-Dawley/Female (50/Group), Route: Oral, Dose: 0, 2, 10, 50 ppb in diet, continuous exposure from conception through PND 140, followed by control diet to 2 yr, Dose: 0, 2, 10): inactive; negative (authors describe as equivocal evidence based on stromal polyp (2/51, 5 | carcinogen call (Species: Rat, Strain/Sex: Sprague-Dawley/Male (50/Group), Route: Oral, Dose: 0, 2, 10, 50 ppb in diet, continuous exposure from conception through 2 yr, Dose: 0, 2, 10): inactive; negative | carcinogen call (Species: Rat, Strain/Sex: Sprague-Dawley/Male (50/Group), Route: Oral, Dose: 0, 2, 10, 50 ppb in diet, continuous exposure from conception through PND 140, followed by control diet to 2 yr, Dose: 0, 2, 10): inactive; negative

CNC[C@H](O)c1cccc(O)c1
carcinogen call (Species: MOUSE, Strain/Sex: B6C3F1/FEMALE, Route: ORAL, Dose: 0, 1250, 2500 PPM IN DIET FOR 103 WK, Dose: 0, 1250, 2500 PPM IN DIET FOR 103 WK): inactive; negative | carcinogen call (Species: MOUSE, Strain/Sex: B6C3F1/MALE, Route: ORAL, Dose: 0, 1250, 2500 PPM IN DIET FOR 103 WK, Dose: 0, 1250, 2500 PPM IN DIET FOR 103 WK): inactive; negative | carcinogen call (Species: RAT, Strain/Sex: F344/FEMALE, Route: ORAL, Dose: 0, 620, 1250 PPM IN DIET FOR 103 WK, Dose: 0, 620, 1250 PPM IN DIET FOR 103 WK): inactive; negative | carcinogen call (Species: RAT, Strain/Sex: F344/MALE, Route: ORAL, Dose: 0, 620, 1250 PPM IN DIET FOR 103 WK, Dose: 0, 620, 1250 PPM IN DIET FOR 103 WK): inactive; negative

CN=C(NCc1cnc(Cl)s1)N[N+](=O)[O-]
carcinogen call (Species: Rat, Strain/Sex: ???/Female (60/group), Route: Oral, Dose: 0, 150, 500, 1,500, 3,000 ppm in diet for 2 yr, Dose: 0, 150, 500, 1,500, 3,000 ppm in diet for 2 yr): inactive; negative (study details not given in source; purity 95.2%) | carcinogen call (Species: Rat, Strain/Sex: ???/Male (60/group), Route: Oral, Dose: 0, 150, 500, 1,500, 3,000 ppm in diet for 2 yr, Dose: 0, 150, 500, 1,500, 3,000 ppm in diet for 2 yr): inactive; negative (study details not given in source; purity 95.2%)

C=C(C)c1ccccc1
carcinogen call (Species: Mouse, Strain/Sex: B6C3F1/Female (50/group), Route: Inhalation, Dose: 0, 100, 300, 600 ppm for 6 hr/d, 5 d/wk, except holidays, for 105 wk, Dose: 0, 100, 300, 600 ppm for 6 hr/d, 5 d/wk, except holidays, for 105 wk, Tumor Site: Type of Lesion: Liver: hepatocelllular carcinoma (3/50, 9/50, 6/50, 18/50), hepatocellular adenoma and carcinoma combined (13/50, 26/50): active; positive (ntp reports as clear evidence) | carcinogen call (Species: Mouse, Strain/Sex: B6C3F1/Male (50/group), Route: Inhalation, Dose: 0, 100, 300, 600 ppm for 6 hr/d, 5 d/wk, except holidays, for 105 wk, Dose: 0, 100, 300, 600 ppm for 6 hr/d, 5 d/wk, except holidays, for 105 wk, Tumor Site: Type of Lesion: Liver: hepatocellular adenoma and carcinoma combined (28/50, 36/50, 33/50, 37/50 (considered equivocal))): inactive; negative; p value not significant (ntp reports as equivocal evidence) | carcinogen call (Species: Rat, Strain/Sex: F344/N / Female (50/group), Route: Inhalation, Dose: 0, 100, 300, 1000 ppm for 6 hr/d, 5 d/wk, except holidays, for 105 wk, Dose: 0, 100, 300, 1000 ppm for 6 hr/d, 5 d/wk, except holidays, for 105 wk): inactive; negative | carcinogen call (Species: Rat, Strain/Sex: F344/N / Male (50/group), Route: Inhalation, Dose: 0, 100, 300, 1000 ppm for 6 hr/d, 5 d/wk, except holidays, for 105 wk, Dose: 0, 100, 300, 1000 ppm for 6 hr/d, 5 d/wk, except holidays, for 105 wk, Tumor Site: Type of Lesion: Kidney: renal tubule adenoma and carcinoma combined (0/50, 0/50, 3/50, 7/50 (single and step sections)) Mononuclear cell): active; positive (ntp reports as some evidence)
